The values that follow come from US20240358015A1, “HERBICIDAL COMPOSITIONS” (Agrematch Ltd., priority 2021, published 2024).

What all share (format): in vivo
Assay [1] has as its system Setaria viridis. The assay can be described thus: Growth-chamber post-emergence assay (Example 8). As for the experimental part: (§1) Herbicidal activity of Compounds 1B, 3, 4, 5 and 6 was determined by post-emergence application on 8-day old plants (weeds) of the Amaranthus palmeri and Setaria viridis species that were grown at 16 hours/8 hours day/night cycles at 30° C./25° C., respectively. Leaf stage was typically 4-6 for A. palmeri and 3-4 for S. viridis.
(§2) In each treatment, between 1 to 4 pots (8×12 cm), containing about 6 Amaranthus palmeri or Setaria viridis plants, were sprayed using a VL-SET Paasche Airbrush with a 1 ml-solution containing 0.250-2 mg/ml of the tested compound, which is equivalent to about 250-2000 g/ha.
(§3) Damage assessment: Herbicidal activity was assessed and scored 3-4 days after application by visual inspection of the plants in comparison to plants treated with the formulation alone (with no active ingredient) as control. Activity score is in the range of 0 to 100, where 0 represents no herbicidal activity like control plants and 100 represents the maximal herbicidal activity (i.e., total death of the plant).

Assay [2] concerns Amaranthus palmeri. The assay can be described thus: Growth-chamber post-emergence assay (Example 8). The method, then:
as §1, §2, §3

In assay [3] the test system is Setaria viridis. The assay can be described thus: Growth-chamber post-emergence herbicidal assay (Example 2). As for the experimental part: (§4) Herbicidal activity was determined by post-emergence application on 8-day old plants (weeds) of the Amaranthus palmeri and Setaria viridis species that were grown at 16 hours/8 hours day/night cycles at 30° C./25° C., respectively. Leaf stage was typically 4-6 for A. palmeri and 3-4 for S. viridis.
(§5) In each treatment, 2-3 pots, each containing about 5 plants each (for Setaria viridis), and one 9-pack, containing about 9 plants (for Amaranthus palmeri), were sprayed using a VL-SET Paasche Airbrush with 0.3-1.5 ml solution containing 0.125-2 mg/ml of a tested compound, which is equivalent to about 125-2000 g/ha.
as §3
Herbicidal activity scores 3-4 days after application are presented Table 3 below.

In assay [4] the test system is Amaranthus palmeri. Described as above. The method, then: as §4, §5, §3
Formulation design: Compounds were tested on A. Palmeri in various formulations, and in varying concentrations for each of the tested formulations, in order to determine optimal conditions for its application and performance. Activity scores were determined as described hereinabove. Solubility scores were determined by visual inspection on a scale of 1-10, with 10 representing complete solubilization and 1 represents nullified solubilization.
Each of the obtained solution was then mixed with different adjuvants and applied at a rate equivalent to 500 g/ha for A. palmeri and 1000 g/ha for S. viridis. Herbicidal activity scores 3-4 days after application are presented Table 3 below.

Setting [5] is: 250 g/ha, 2% MIPA, 2% DMSO, 0.25% Genapol, 2% HASTEN.
[6] abbreviates: 500 g/ha, 2% MIPA, 2% DMSO, 0.25% Genapol, 2% HASTEN.
[7] abbreviates: 1000 g/ha, 2% MIPA, 2% DMSO, 0.25% Genapol, 2% HASTEN, 3-4 days after application, scale 0-100.
[8] abbreviates: 1000 g/ha, 8.6% Acetophenone, 1% TWEEN 80, 1.4% NMP, 0.5% ECO, 0.5% Ca-LAS, 0.05% Break-Thru.
The mark [9] stands for this setting: 250 g/ha, 10% Acetone, 1.85% MIPA, 5% DMSO, 0.23% Genapol, 1.85% HASTEN.
[10] abbreviates: 500 g/ha, 10% Acetone, 1.7% MIPA, 5% DMSO, 0.85% TWEEN20, 1.7% HASTEN.
The mark [11] stands for this setting: 1000 g/ha, 2% MIPA, 2% DMSO, 1% TWEEN20, 2% HASTEN.
The mark [12] stands for this setting: 2000 g/ha, 2% MIPA, 2% DMSO, 1% TWEEN20, 2% HASTEN.
Setting [13] is: 2000 g/ha, 8.6% Acetophenone, 2% TWEEN 20, 1.4% NMP, 0.5% ECO, 0.5% Ca-LAS, 0.05% Break-Thru.
Where [14] appears, read: 250 g/ha, 14% Acetone, 2% MIPA, 5% DMSO, 1% TWEEN20, 2% HASTEN.
The mark [15] stands for this setting: 330 g/ha, 5% Acetone, 2% MIPA, 2.5% DMSO, 0.25% Genapol, 2% HASTEN.
[16] abbreviates: 330 g/ha, 10% Acetone, 0.8% MIPA, 5% DMSO, 0.25% Genapol, 2% HASTEN.
Setting [17] is: 330 g/ha, 10% Acetone, 2% MIPA, 5% DMSO, 0.25% Genapol, 2% HASTEN.
Where [18] appears, read: 500 g/ha, 18.5% Acetone, 2% MIPA, 5% DMSO, 1% TWEEN20, 2% HASTEN.
The mark [19] stands for this setting: 2000 g/ha, 2% MIPA, 1% TWEEN20, 2% HASTEN.

In the case of `O=C(O)c1cc(O)c2c(c1)C(=O)c1cccc(O[C@@H]3O[C@H](CO)[C@@H](O)[C@H](O)[C@H]3O)c1C2=O` [Compound 1B, Rhein 8-glucoside], the Herbicidal activity score turned out to be 70 in the assay on Setaria viridis [1] (setting [5]); 95 in the assay on Setaria viridis [1] (setting [6]); 90 in the assay with Setaria viridis [1] (setting [7]); 85 with Amaranthus palmeri [2] (setting [5]); 100 with Amaranthus palmeri [2] (setting [6]); 100 in the assay on Amaranthus palmeri [2] (setting [7]). Also, the “Activity Score” value in the assay on Setaria viridis [3] (750* g/ha (rate adjusted to reflect that of the Rhein actual active ingredient), 1% Eta-70, 5.7 mM MIPA, 0.05% Break-Thru) amounted to 50; with Amaranthus palmeri [4] (500 g/ha, 2% TWEEN 20, 0.05M Tris buffer pH 8.3, 0.05% Break-Thru), 30; in the assay with Amaranthus palmeri [4] (750* g/ha (rate adjusted to reflect that of the Rhein actual active ingredient), 2% TWEEN 20, 5.7 mM MIPA, 0.05% Break-Thru), 70.

As to `O=C(O)c1ccc2c(c1)C(=O)c1ccccc1C2=O` [Compound 2], the “Activity Score” value is listed as 40 in the assay on Setaria viridis [3] (1500 g/ha, 2% DMSO, 1% TWEEN 80, 0.05M Tris buffer pH 8, 0.05% Break-Thru); 100 with Amaranthus palmeri [4] (500 g/ha, 4.3% Acetophenone, 1% TWEEN 80, 0.7% NMP, 0.25% ECO, 0.25% Ca-LAS, 0.05% Break-Thru); 95 in the assay on Amaranthus palmeri [4] (setting [8]); 100 in the assay on Amaranthus palmeri [4] (2000 g/ha, 2% DMSO, 1% TWEEN 80, 0.05M Tris buffer pH 8, 0.05% Break-Thru).

On to `COC(=O)c1ccc2c(c1O)C(=O)c1ccccc1C2=O` [Compound 3], for which the Herbicidal activity score with Setaria viridis [1] (setting [9]) is recorded as 63; in the assay with Setaria viridis [1] (setting [10]) it was 88; in the assay on Setaria viridis [1] (setting [11]), 95; in the assay on Setaria viridis [1] (setting [12]) it was 100; in the assay with Amaranthus palmeri [2] (setting [9]), 91; in the assay with Amaranthus palmeri [2] (setting [10]) it was 99. In addition, the Herbicidal activity score in the assay with Amaranthus palmeri [2] (setting [11]) and in the assay with Amaranthus palmeri [2] (setting [12]) was 95 each time. In addition, the “Activity Score” value in the assay with Setaria viridis [3] (setting [13]) was 10; in the assay on Amaranthus palmeri [4] (setting [13]), 80.

Consider `O=C1c2ccccc2C(=O)c2cc(CO)ccc21` [Compound 4], for which the Herbicidal activity score in the assay with Setaria viridis [1] (setting [9]) is 45; in the assay on Setaria viridis [1] (setting [14]), 90; in the assay with Setaria viridis [1] (setting [15]), 80; in the assay on Setaria viridis [1] (setting [16]), 75; with Setaria viridis [1] (setting [17]) it was 88; in the assay with Setaria viridis [1] (setting [18]) it was 50. Besides, the Herbicidal activity score in the assay on Amaranthus palmeri [2] (setting [9]) was determined as 85; with Amaranthus palmeri [2] (setting [14]) it was 90; with Amaranthus palmeri [2] (setting [15]) it was 88; with Amaranthus palmeri [2] (setting [16]), 93; in the assay with Amaranthus palmeri [2] (setting [17]), 80; in the assay on Amaranthus palmeri [2] (setting [18]), 95. Also, the “Activity Score” value with Setaria viridis [3] (1500 g/ha, 6% DMSO, 0.05% Break-Thru) turned out to be 40; in the assay on Amaranthus palmeri [4] (setting [8]), 95; in the assay on Amaranthus palmeri [4] (1500 g/ha, 8.6% Acetophenone, 4% TWEEN 20, 1.4% NMP, 0.5% ECO, 0.5% Ca-LAS, 0.05% Break-Thru), 95.

`Cc1cc(O)c2c(c1)C(=O)c1cc(O)cc(O)c1C2=O` [Compound 5]: the Herbicidal activity score in the assay with Setaria viridis [1] (setting [11]) worked out at 75; in the assay on Setaria viridis [1] (setting [19]), 90; in the assay on Amaranthus palmeri [2] (setting [11]), 95; in the assay with Amaranthus palmeri [2] (setting [19]) it was 100. The “Activity Score” value in the assay on Amaranthus palmeri [4] (setting [13]) is 70.

As to `O=C1c2ccccc2C(=O)c2c(O)cccc21` [Compound 6], the Herbicidal activity score in the assay on Setaria viridis [1] (setting [14]) is listed as 90; with Setaria viridis [1] (setting [18]), 40; in the assay with Setaria viridis [1] (setting [11]), 90; with Setaria viridis [1] (setting [12]), 95; in the assay with Amaranthus palmeri [2] (setting [14]) it was 10; in the assay with Amaranthus palmeri [2] (setting [18]) it was 70. In addition, the Herbicidal activity score in the assay on Amaranthus palmeri [2] (setting [11]) is on record as 70; with Amaranthus palmeri [2] (setting [12]), 90. Besides, the “Activity Score” value in the assay on Setaria viridis [3] (setting [8]) came out at 80; with Amaranthus palmeri [4] (1500 g/ha, 8.6% Acetophenone, 1% TWEEN 80, 1.4% NMP, 0.5% ECO, 0.5% Ca-LAS, 0.05% Break-Thru), 75.

With `Nc1ccc(O)c2c1C(=O)c1ccccc1C2=O` [Compound 7], in the assay on Amaranthus palmeri [4] (setting [13]), the “Activity Score” value is 40.
